Source: patent publication US11407729B2, “Quinoline and quinazoline compounds and methods of use thereof” (Stingray Therapeutics, Inc., priority 2019, dated 2022)
pIC50: −log10 of the molar value. Structures can show the parent of a compound that is named as a salt.

How the values were obtained:
ENPP1 protein [1] = molecular target: T1, ENPP1 protein (Homo sapiens, UniProt P22413); experiment: ENPP1 Inhibition Assay; assay type: biochemical; design: purchased R&D 6136-EN-010; conditions: substrate Thymidine 5′-monophosphate p-nitrophenol ester; 37° C. for 45 minutes; absorbance at 405 nm
T1 sequence (P22413 1-925): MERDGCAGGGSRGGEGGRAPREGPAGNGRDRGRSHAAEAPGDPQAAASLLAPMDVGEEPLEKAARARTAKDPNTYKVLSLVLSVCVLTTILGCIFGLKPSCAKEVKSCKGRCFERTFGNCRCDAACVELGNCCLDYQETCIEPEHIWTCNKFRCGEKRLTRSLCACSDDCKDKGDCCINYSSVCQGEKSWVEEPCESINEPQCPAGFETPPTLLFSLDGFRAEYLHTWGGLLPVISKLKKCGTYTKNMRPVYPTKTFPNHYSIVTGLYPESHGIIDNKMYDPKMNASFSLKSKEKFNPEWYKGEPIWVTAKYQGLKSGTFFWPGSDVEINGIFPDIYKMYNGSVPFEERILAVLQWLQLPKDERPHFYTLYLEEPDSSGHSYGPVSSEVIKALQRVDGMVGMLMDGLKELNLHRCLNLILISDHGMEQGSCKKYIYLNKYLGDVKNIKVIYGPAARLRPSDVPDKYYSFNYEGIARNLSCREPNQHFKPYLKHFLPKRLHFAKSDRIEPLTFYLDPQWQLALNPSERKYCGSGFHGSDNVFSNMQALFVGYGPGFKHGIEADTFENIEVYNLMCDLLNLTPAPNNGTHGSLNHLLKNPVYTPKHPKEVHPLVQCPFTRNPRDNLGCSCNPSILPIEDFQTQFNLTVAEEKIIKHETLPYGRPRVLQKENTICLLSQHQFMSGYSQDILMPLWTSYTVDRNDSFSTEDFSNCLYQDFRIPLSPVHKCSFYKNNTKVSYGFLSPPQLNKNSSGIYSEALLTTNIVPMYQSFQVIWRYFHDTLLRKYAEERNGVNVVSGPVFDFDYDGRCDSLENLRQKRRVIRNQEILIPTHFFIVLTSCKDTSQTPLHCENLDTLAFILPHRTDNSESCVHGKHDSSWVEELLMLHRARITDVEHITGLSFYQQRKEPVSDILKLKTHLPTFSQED
Protocol: 1. ENPP1 Inhibition Assay
An eight point serial dilution of drugs was prepared in 10× in assay buffer with the final assay concentrations starting at 10 μM, 3 μM, 1 μM, 0.3 μM . . . 0 μM. A dilution of DMSO was included as a control. The assay plate was set up as follows with each well in duplicate: 81 μL assay buffer+10 μL ENPP1 inhibitor or DMSO+5 μL Substrate+4 μL Enzyme. Both the enzyme and substrate were added to opposite sides of the well to ensure that there was no interaction until all wells had both components. The plate was then centrifuged gently for 10 seconds, followed by an incubation at 37° C. for 45 minutes.
IC50 values are determined using GraphPad Prism 5 software. The data were entered as an X-Y plot into the software as percent inhibition for each concentration of the drug. The concentration values of the drug were log transformed and the nonlinear regression was carried out using the “sigmoidal dose-response (variable slope)” option within the GraphPad software to model the data and calculate IC50 values.

ENPP1 protein [2] = molecular target: T1, ENPP1 protein; experiment: Thermal Shift Binding Assay; conditions: 1 μg of ENPP1 protein incubated with 100 μM of drug for 5 minutes; read-out: Thermal Shift (Δ TmD)
Protocol: Thermal Shift Binding Assay.
The Thermal Shift Assays were implemented to study thermal stabilization of ENPP1 proteins upon ENPP1 inhibitor or ligand binding. These assays were used extensively on purified ENPP1 protein. In a 384-well plate, 1 μg of ENPP1 protein was incubated with 100 μM of the corresponding drug for 5 minutes. Each well was exposed to increasing temperatures to determine an unfolding temperature of the protein. […] 2′3′ cGAMP was used as a positive control, as it is a substrate of ENPP1.

Structure (SMILES) | pIC50 (ENPP1 protein [1]) | ΔTm at 100 µM (ENPP1 protein [2])
COc1cc2ncnc(N3CCC(CCNS(N)(=O)=O)CC3)c2cc1OP(=O)(O)O [Compound I-03, sodium 7-methoxy-4-(4-(2-(sulfamoylamino)ethyl)piperidin-1-yl)quinazolin-6-yl phosphate] | 5.54 | –
COc1ccc(OC)c(S(=O)(=O)Nc2cnc3ccccc3c2)c1 [Compound I-06, 2,5-dimethoxy-N-(quinolin-3-yl)benzenesulfonamide] | 5.29 | 1.6 °C
COc1ccc2c(N3CCC(C(C)CNS(N)(=O)=O)CC3)ccnc2c1 (centres unmarked) [Compound I-07, N-(2-(1-(7-methoxyquinolin-4-yl)piperidin-4-yl)propyl)aminosulfonamide] | 6.60 | –
COc1ccc2nccc(N3CCC(C(C)CNS(N)(=O)=O)CC3)c2c1 (centres unmarked) [Compound I-08, N-(2-(1-(6-methoxyquinolin-4-yl)piperidin-4-yl)propyl)aminosulfonamide] | 6.65 | –
COc1cc2nccc(N3CCC(C(C)CNS(N)(=O)=O)CC3)c2cc1O (centres unmarked) [Compound I-09, N—(N-(2-(1-(6-hydroxy-7-methoxyquinolin-4-yl)piperidin-4-yl)propyl)sulfuricdiamide formate salt] | 5.73 | –
COCCOc1cc2c(N3CCC(C(C)CNS(N)(=O)=O)CC3)ccnc2cc1OC (centres unmarked) [Compound I-10, N-(2-(1-(7-methoxy-6-(2-methoxyethoxy)quinolin-4-yl)piperidin-4-yl)propyl)aninosulfonamide formate salt] | 6.81 | –
COc1cc2nccc(N3CCC(C(C)CNS(N)(=O)=O)CC3)c2cc1OCCO (centres unmarked) [Compound I-11, N-(2-(1-(6-(2-hydroxyethoxy)-7-methoxyquinolin-4-yl)piperidin-4-yl)propyl)aminosulfonamide formate salt] | 5.35 | –
COc1cc2nccc(N3CCC(C(C)(C)CNS(N)(=O)=O)CC3)c2cc1OC [Compound I-14, N-(2-(1-(6,7-dimethoxyquinolin-4-yl)piperidin-4-yl)-2-methylpropyl)sulfuricdiamide hydro chloride salt] | 7.45 | –
CNS(=O)(=O)NCC(C)C1CCN(c2ccnc3cc(OC)c(OC)cc23)CC1 (centres unmarked) [Compound I-15, N-(2-(1-(6,7-dimethoxyquinolin-4-yl)piperidin-4-yl)propyl)Methyaminosulfonamide] | 5.46 | –
COc1cc2nccc(N3CCC(C(C)CN(C4CC4)S(N)(=O)=O)CC3)c2cc1OC (centres unmarked) [Compound I-16, N-cyclopropyl-N-(2-(1-(6,7-dimethoxyquinolin-4-yl)piperidin-4-yl)propyl)aminosulfonamide formate salt] | 6.39 | –
COc1cc2nccc(N3CCC(C4CCCN(S(N)(=O)=O)C4)CC3)c2cc1OC (centres unmarked) [Compound I-17, 6,7-dimethoxy-4-(1-(aminosulfonyl)-[3,4′-bipiperidin]-1′-yl)quinoline formate salt] | 7.12 | –
COc1cc2nccc(N3CCC(C(=O)NC4(C#N)CC4)CC3)c2cc1OC [Compound I-18, N-(1-cyanocyclopropyl)-1-(6,7-dimethoxyquinolin-4-yl)piperidine-4-carboxamide] | < 5.00 | –
COc1cc2nccc(N3CCC(C(C)CNS(C)(=O)=O)CC3)c2cc1OC (centres unmarked) [Compound I-19, N-(2-(1-(6,7-dimethoxyquinolin-4-yl)piperidin-4-yl)propyl)methanesulfonamide] | 5.42 | –
COc1cc2nccc(N3CCN(C(C)CNS(N)(=O)=O)CC3)c2cc1OC (centres unmarked) [Compound I-20, N-(2-(4-(6,7-dimethoxyquinolin-4-yl)piperazin-1-yl)propyl)aminosulfonamide formate salt] | 7.86 | –
COc1cc2nccc(N3CCN(CCNS(N)(=O)=O)[C@H](C)C3)c2cc1OC [Compound I-21, (R)—N-(2-(4-(6,7-dimethoxyquinolin-4-yl)-2-methylpiperazin-1-yl)ethyl)aminosulfonamide formate salt] | 6.46 | –

Results, then the molecule that gave them:

pIC50 (ENPP1 protein [1]) | ΔTm at 100 µM (ENPP1 protein [2]) | Structure (SMILES)
8.04 | – | COc1cc2nccc(N3CCC(C4(CNS(N)(=O)=O)CC4)CC3)c2cc1OC [Compound I-22]
6.05 | – | COc1cc2nccc(N3CCC(NS(N)(=O)=O)CC3)c2cc1OC [Compound I-23, N—(N-(1-(6,7-dimethoxyquinolin-4-yl)piperidin-4-yl)sulfuricdiamide formate salt]
6.02 | – | COc1cc2nccc(N3CCC(N(C4CC4)S(N)(=O)=O)CC3)c2cc1OC [Compound I-24, N—(N-cyclopropyl-N-(1-(6,7-dimethoxyquinolin-4-yl)piperidin-4-yl)sulfuricdiamide formate salt]
8.30 | – | CCC(CNS(N)(=O)=O)C1CCN(c2ncnc3cc(OC)c(OC)cc23)CC1 (centres unmarked) [Compound I-25, N—(N-(2-(1-(6,7-dimethoxyquinazolin-4-yl)piperidin-4-yl)butyl)sulfuricdiamide formate salt]
8.62 | – | COc1cc2ncnc(N3CCC(C(C)(C)CNS(N)(=O)=O)CC3)c2cc1OC [Compound I-26, N-(2-(1-(6,7-dimethoxyquinazolin-4-yl)piperidin-4-yl)-2-methylpropyl)sulfuricdiamide formate salt]
7.94 | – | COc1cc2ncnc(N3CCC(C4(CNS(N)(=O)=O)CC4)CC3)c2cc1OC [Compound I-27, N—(N-((1-(1-(6,7-dimethoxyquinazolin-4-yl)piperidin-4-yl)cyclopropyl)methyl)sulfuricdiamide formate salt]
7.58 | – | COCOc1cc2c(N3CCC(C(C)CNS(N)(=O)=O)CC3)ncnc2cc1OC (centres unmarked) [Compound I-28]
6.38 | – | COc1cc2ncnc(N3CCC(NS(N)(=O)=O)CC3)c2cc1OC [Compound I-29, N—(N-(1-(6,7-dimethoxyquinazolin-4-yl)piperidin-4-yl)sulfuricdiamide formate salt]
5.25 | – | COc1cc2ncnc(N3CCC(N(C4CC4)S(N)(=O)=O)CC3)c2cc1OC [Compound I-30]
7.63 | – | COc1cc2nccc(N3CCN(C4(CNS(N)(=O)=O)CC4)CC3)c2cc1OC [Compound I-31, N-((1-(4-(6,7-dimethoxyquinolin-4-yl)piperazin-1-yl)cyclopropyl)methyl)sulfuricdiamide]
7.25 | – | COc1cc2ncnc(N3CCN(C4(CNS(N)(=O)=O)CC4)CC3)c2cc1OC [Compound I-32, N-((1-(4-(6,7-dimethoxyquinazolin-4-yl)piperazin-1-yl)cyclopropyl)methyl)sulfuricdiamide]
6.80 | – | COCOc1cc2c(N3CCN(C4(CNS(N)(=O)=O)CC4)CC3)ncnc2cc1OC [Compound I-33, N-((1-(4-(7-methoxy-6-(methoxymethoxy)quinazolin-4-yl)piperazin-1-yl)cyclopropyl)methyl)sulfuricdiamide]
6.88 | – | COc1cc2ncnc(N3CCN(C4(CNS(N)(=O)=O)CC4)CC3)c2cc1OCF [Compound I-34, N-((1-(4-(6-(fluoromethoxy)-7-methoxyquinazolin-4-yl)piperazin-1-yl)cyclopropyl)methyl)sulfuricdiamide]
7.31 | – | COCOc1cc2c(N3CCC(C4(CNS(N)(=O)=O)CC4)CC3)ncnc2cc1OC [Compound I-35, N-((1-(1-(7-methoxy-6-(methoxymethoxy)quinazolin-4-yl)piperidin-4-yl)cyclopropyl)methyl)sulfuricdiamide]
7.28 | – | COCOc1cc2c(N3CCC(C(C)(C)CNS(N)(=O)=O)CC3)ncnc2cc1OC [Compound I-36, N-(2-(1-(7-methoxy-6-(methoxymethoxy)quinazolin-4-yl)piperidin-4-yl)-2-methylpropyl)sulfuricdiamide]
8.96 | – | COc1cc2nccc(N3CCC(C4(CNS(N)(=O)=O)CC4)CC3)c2cc1OCF [Compound I-37, N-((1-(1-(6-(fluoromethoxy)-7-methoxyquinolin-4-yl)piperidin-4-yl)cyclopropyl)methyl)sulfuricdiamide]
